Values after ≈ are worked out from the molar mass of the structure shown.
Experiments:
Trypanosoma brucei = assay: Anti-trypanosomal activity, inhibition of T. brucei growth (ATP-bioluminescence luciferase assay); assay type: cell-based; details: read-out: IC50 against Trypanosoma brucei
Description: The antiparasitic activities of exemplary compounds described here was studied using the anti-trypanosomal activity protocol described in: Rapp M, et al. J Med Chem 2006; 49:2096-102. […] FIG. 1 summarizes the compound inhibition of T. brucei growth. It is seen that compounds of the invention are useful in inhibiting T. brucei growth.
Culturing of Parasites. The bloodstream form of Trypanosoma brucei 427 strain was maintained under the standard cell culture conditions (37° C., 5% CO2). The parasites were grown in complete HMI-9 medium containing 10% FBS, 10% Serum Plus and 1× Penicillin/Streptomycin. (Angew. Chem. Int. Ed. Engl. 2003, 42, 5274-5293).
Luciferase Assay. Luciferase assay was used to measure ATP-bioluminescence in T. brucei cultured in 96-well plates at 37° C. for 48 hours. Parasites were diluted to 1.0×10^5 cells/mL in complete HMI-9 medium. One hundred microliters (100 μL) of the diluted parasites were aliquoted into sterile 96-well flat white opaque culture plates (Greiner). Each compound was serially diluted from 10 μM to 0.1 μM in DMSO and then mixed in the appropriate wells containing parasites. The treated parasites were then incubated for 48 hours at 37° C. with 5% CO2 before monitoring viability. To measure the viability of the parasites after treatment with each compound, the parasites were lysed in the wells by adding 100 μL of CellTiter-Glo™ (Promega). After lysis, the ATP bioluminescence of the 96-well plates was measured with a SpectraFluor Plus multidetection plate reader (Tecan).

MDA-MB-231 = assay: Gap junction intercellular communication, MDA-MB-231 cells; assay type: cell-based, human; details: Table 1
MCF-7 = assay: Gap junction intercellular communication, MCF-7 cells; assay type: cell-based, human; details: Table 1
MDA-MB-453 cells = assay: Gap junction activity (GJIC), flow cytometry of dye coupling, MDA-MB-453 cells; assay type: cell-based, human; details: MDA-MB-453; for effect on gap junction intercellular communication: Table 1, concentration not given
Description: FIG. 4(A) MDA-MB-453 and (B) T47D cells were treated with low (500 nM) and high (10 μM) concentrations of PQs for 24 hours. Monolayers of acceptor cell population were grown on 25-cm flasks in the presence of Vibrant DiD. Vybrant DiD in acceptor cells is not able to pass through the gap junctions because of its hydrophobic property. Single cell suspensions of donor treated cells were prepared, labeled with 0.05 μg/ml calcein-AM, incubated at 37 C for 5 minutes. Quantification of dye coupling between the donor and acceptor cells was assessed by dual-excitation flow cytometry. […] Cells treated with 10 μM PQ3 have approximately 40-50% decrease in gap junction activity compared control or DMSO.

[1] = system: MDA-MB-453 human breast cancer cells; assay: Soft agar colony growth, MDA-MB-453 cells; assay type: cell-based; details: Table 2
Description: (§1) FIG. 3(A) MDA-MB-453 and (B) T47D human breast cancer cells were treated with 10 μM of various quinolines for 7 days. Base agar plates were prepared containing 0.8% agar and 0.4% agar in Ham's F12. Cells (5×10^4 cells/33 mm well) were suspended in 100 μl of Ham's F12 with 0.4% agar and plated. These plates were maintained at 37° C. for 7 days and examined for the presence of colonies. Individual colonies of 40 μm or greater were examined. […] However, PQ3 caused a 2.3-fold increase in colony growth in MDA-MB-453 cells and PQ2 caused a 2.6-fold increase in T47D colony growth compared to DMSO. FIGS. 7 and 8 show MDA-MB-453 and T47D colony growth for various concentrations of PQ1 and SA tested for 7 days. The procedures are generally as described above. The cell colony growth decreased using 10 and 100 nM PQ1 for both cell types. Colony Growth Assay: T47D human breast cancer cells were treated with PQ1. Base agar plates were prepared containing 0.8% agar and 0.4% agar in Ham's F12. Cells (5×10^4 cells/33 mm2 well) were suspended in 100 μl of Ham's F12 with 0.4% agar and plated. These plates were maintained at 37° C. for 7 days and examined for the presence of colonies. Individual colonies of 40 um or greater were examined.

[2] = system: T47D human breast cancer cells; assay: Soft agar colony growth, T47D cells; assay type: cell-based; details: for effect on breast cancer cell colony growth: Table 2
Description: Base agar plates were prepared containing 0.8% agar and 0.4% agar in Ham's F12. Cells (5×10^4 cells/33 mm^2 well) were suspended in 100 μl of Ham's F12 with 0.4% agar and plated. These plates were maintained at 37° C. for 7 days and examined for the presence of colonies. Individual colonies of 50 μm or greater were examined. T47D cells were treated with 1, 10 and 100 nM PQ1 and SA (succinic acid) as a solvent control. Individual colonies of 50 μm or greater were examined. Statistical significance, *p<0.05, of at least three experiments
as §1, with “types.” for “types. Colony Growth Assay: T47D human breast cancer cells were treated with PQ1. Base agar plates were prepared containing 0.8% agar and 0.4% agar in Ham's F12. Cells (5×10^4 cells/33 mm2 well) were suspended in 100 μl of Ham's F12 with 0.4% agar and plated. These plates were maintained at 37° C. for 7 days and examined for the presence of colonies. Individual colonies of 40 um or greater were examined.”
(§2) Colony Growth Assay: T47D human breast cancer cells were treated with PQ1. Base agar plates were prepared containing 0.8% agar and 0.4% agar in Ham's F12. Cells (5×10^4 cells/33 mm2 well) were suspended in 100 μl of Ham's F12 with 0.4% agar and plated. These plates were maintained at 37° C. for 7 days and examined for the presence of colonies. Individual colonies of 40 um or greater were examined.
Various oncogenes (e.g. ras, raf, neu, src, mos) down-regulate GJIC while several tumor suppressor genes can up-regulate GJIC. […] Cells were grown in soft agar to assess their capacity for anchorage-independent growth, which is a key feature of cell transformation due to the importance of cell-cell and cell-matrix based tumor suppression. MEC and T47D cells were treated with 10, 100, 1000, and 10000 nM PQ1 for 7 days. A graphical presentation of three experiment results is presented in log scale of PQ1 concentration. […] A 100 nM PQ1 inhibits 66% of colony growth compared to controls, without PQ1 treatment or 100 nM succinic acid.
as §2, with “Using Soft Agar. Cells” for “Assay: T47D human breast cancer cells”, “0, 10, 100, 200 and 500 nM PQ1 for 7 days.” for “PQ1.”, “mm^2” for “mm2”, “50 μm” for “40 um”

ZR75 = assay: Gap junction intercellular communication, ZR75 cells; assay type: cell-based, human; details: Table 1
SW620 colon cancer cells = assay: Gap junction activity, SW620 colon cancer cells; assay type: cell-based
Description: However, PQ3 has an opposite effect on mammary cancer cell lines. […] A summary of PQ-mediated GJIC activity and colony growth in breast and colon cancer cells is presented in Tables 1, 2, and 3, as well as FIGS. 10-13. In FIG. 10, SW620 cells were dosed for 24 hours with PQ1 at 100, 200, 300, and 500 nM. The gap junction activity was measured as a percent of control, as previously described. It was seen that all concentrations on PQ1 increased the gap junction activity in SW620 colon cancer cells as compared to the control. In FIG. 11, the effect of PQ1 on the expression of PKCγ was studied at concentrations of 100, 200, 300 and 500 nM PQ1 for 24 hours. It is seen in FIG. 11 that PQ1 has no effect on the expression of PKCγ at the levels tested. In FIGS. 12 and 13, the effect of PQ1 on the colony growth of SW620 colon cancer cells was measured with 1-100 nM PQ1 (FIG. 12) and 10 uM PQ1 (FIG. 13).

HT29 = assay: Gap junction intercellular communication, HT29 colon cancer cells; assay type: cell-based; details: Table 3
R28 cells = assay: Dye transfer/scrape loading gap junction assay in R28 cells; assay type: cell-based, rat; details: 10 μM for 40 minutes, compared to untreated control cells
Description: To determine the effects of the compounds of the invention on gap junctions, […] R28 cells and lucifer yellow dye and rhodamine dextran were used to study gap junction. (Das, S.; Lauer, J.; Barnett, M.; Lin, D.; Akoev, V.; Battina, S.; Hua, D. H.; Takemoto, D. J. PKCγ phosphorylates connexin50 on serine-430. A presentation at 2006 ARVO Annual Meeting, Apr. 30-May 4, 2006, Fort Lauderdale, Fla.). […] The cells were treated with different compounds as shown @ 10 μM for 40 minutes. A mixture of lucifer yellow (LY) and rhodamine dextran (RD) was added to the cells at the center of the coverslip. Two cuts across the coverslip were made to form a transient tear in the plasma membranes of the cells to permit dye transfer through gap junctions. Cells were incubated with the dye for 20 minutes, then fixed and examined by fluorescent microscopy. For quantitative analysis the extent of dye transfer was estimated by counting the number of LY and RD labeled cells in the microscopic field and graphed. […] PQ3 is useful as a drug having reduced gap junction inhibitory activity. The gap junction activity of other compounds of the invention may be tested as described herein without the use of undue experimentation.
Gap junction activity assay. R28 cells were grown to 90% confluency on coverslips. They were treated with PQ1 at 10 μM for 40 min. A mixture of 1% each, in PBS, Lucifer yellow (LY) and Rhodamine Dextran (RD) (Molecular Probes, Eugene, Oreg.) were added to the cells at the center of the coverslip. Two cuts across the coverslip were made to form a transient tear in the plasma membranes of the cells to permit dye entry into cells. Cells were incubated with 2.5 μl of both of the dyes for 20 min, then fixed in 2.5% paraformaldehyde, washed in PBS and examined by fluorescent microscopy using a Nikon C1 confocal microscopy. For quantitation, the extent of dye transfer was calculated by counting the number of LY-labeled cells from the initial scrape with subtraction of RD-labeled cells, as a cell damage control, in the microscopic field. Four points per slide were photographed. The experiments were repeated six times, and data are means±SEM.

Row | Structure (SMILES) | IC50 (Trypanosoma brucei) [µg/mL] | effect on gap junction intercellular communication (MDA-MB-231) | effect on gap junction intercellular communication (MCF-7) | effect on gap junction intercellular communication (MDA-MB-453 cells) | effect on breast cancer cell colony growth [1] | effect on colony growth ([2]; 10 μM, 7 days) | effect on breast cancer cell colony growth [2] | effect on gap junction intercellular communication (ZR75) | effect on gap junction intercellular communication (SW620 colon cancer cells; Table 3, concentration not given) | effect on gap junction intercellular communication (HT29) | effect on gap junction activity (MDA-MB-453 cells; 24 hours) | increase in colony growth ([2]; 10 μM, 7 days, compared to DMSO) [fold] | effect on gap junction intercellular communication (SW620 colon cancer cells; Table 3, 6 uM) | block of lucifer yellow dye transfer through gap junctions (R28 cells) | block of lucifer yellow dye transfer through gap junctions (R28 cells; listed as MQ)
1 | COc1cc([N+](=O)[O-])c(N)cc1Oc1cccc(C(F)(F)F)c1 [PQ4, 4-Amino-5-nitro-2-(3-trifluoromethylphenyloxy)anisole] | 25 (≈ 76.2 µM) | Decrease | No effect | No effect | No effect | inhibitory effect | Decrease | No effect | No effect | Increase | – | – | – | – | –
2 | COc1cc([N+](=O)[O-])c2nccc(C)c2c1Oc1cccc(C(F)(F)F)c1 [PQ2, 6-Methoxy-4-methyl-8-nitro-5-(3-trifluoromethylphenyloxy)quinoline] | 2.5 (≈ 6.6 µM) | Decrease | Decrease | No effect | No effect | – | Increase | No effect | – | Increase | no significant effect | 2.6 | Increase | – | –
3 | OC(c1cc(C(F)(F)F)nc2c(C(F)(F)F)cccc12)C1CCCCN1 (centres unmarked) [mefloquine, reference compound] | – | – | – | – | – | – | – | – | – | – | – | – | – | blocked dye transfer significantly | hardly any passage of the dye

From US8809368B2, “Compounds affecting gap junction activity” (Kansas State University Research Foundation, priority 2006, dated 2014)
